Reference: US12275731B2, “Azaindole inhibitors of wild-type and mutant forms of LRRK2” (DANA-FARBER CANCER INSTITUTE, INC., priority 2018, dated 2025)

Assays:
Experiment in all cases: KinomeScan profiling
Assay type in all cases: binding
[1] = biological target: T1, IKK-alpha (Homo sapiens, UniProt O15111); details: read-out: % control
T1 sequence (O15111 1-745): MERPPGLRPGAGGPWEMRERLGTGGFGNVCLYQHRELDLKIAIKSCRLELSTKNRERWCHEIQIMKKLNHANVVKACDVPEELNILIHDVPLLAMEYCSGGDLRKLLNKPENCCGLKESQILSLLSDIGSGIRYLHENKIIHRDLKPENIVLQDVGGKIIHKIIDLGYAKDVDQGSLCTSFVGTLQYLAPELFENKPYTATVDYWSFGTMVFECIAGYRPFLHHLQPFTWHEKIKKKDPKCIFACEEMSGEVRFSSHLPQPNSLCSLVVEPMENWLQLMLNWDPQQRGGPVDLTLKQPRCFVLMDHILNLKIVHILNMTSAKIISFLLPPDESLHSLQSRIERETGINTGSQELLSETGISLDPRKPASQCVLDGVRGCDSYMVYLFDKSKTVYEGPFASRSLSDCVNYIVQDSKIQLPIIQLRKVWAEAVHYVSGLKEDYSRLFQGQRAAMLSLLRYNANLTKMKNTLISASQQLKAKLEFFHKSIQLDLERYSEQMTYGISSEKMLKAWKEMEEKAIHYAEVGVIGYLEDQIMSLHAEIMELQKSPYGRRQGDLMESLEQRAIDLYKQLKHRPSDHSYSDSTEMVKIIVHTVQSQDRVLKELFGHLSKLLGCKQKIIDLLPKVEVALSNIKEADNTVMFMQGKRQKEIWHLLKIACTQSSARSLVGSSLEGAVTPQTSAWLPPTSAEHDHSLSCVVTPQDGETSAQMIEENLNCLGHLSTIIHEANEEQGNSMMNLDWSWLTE
How it was run: (§1)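 1 μM cpd in DMSO; 468-kinase panel; readout RLU. % ctrl = (cpd − pos ctrl)/(neg ctrl − pos ctrl) ×100. Pos ctrl = 0%, DMSO = 100%. Hit cut-off <35%.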

[2] = biological target: T2, ADCK4 (Homo sapiens, UniProt Q96D53); details: ADCK4, 1 μM; read-out: % control
T2 construct: purchased KinomeScan®
T2 sequence (Q96D53 1-544): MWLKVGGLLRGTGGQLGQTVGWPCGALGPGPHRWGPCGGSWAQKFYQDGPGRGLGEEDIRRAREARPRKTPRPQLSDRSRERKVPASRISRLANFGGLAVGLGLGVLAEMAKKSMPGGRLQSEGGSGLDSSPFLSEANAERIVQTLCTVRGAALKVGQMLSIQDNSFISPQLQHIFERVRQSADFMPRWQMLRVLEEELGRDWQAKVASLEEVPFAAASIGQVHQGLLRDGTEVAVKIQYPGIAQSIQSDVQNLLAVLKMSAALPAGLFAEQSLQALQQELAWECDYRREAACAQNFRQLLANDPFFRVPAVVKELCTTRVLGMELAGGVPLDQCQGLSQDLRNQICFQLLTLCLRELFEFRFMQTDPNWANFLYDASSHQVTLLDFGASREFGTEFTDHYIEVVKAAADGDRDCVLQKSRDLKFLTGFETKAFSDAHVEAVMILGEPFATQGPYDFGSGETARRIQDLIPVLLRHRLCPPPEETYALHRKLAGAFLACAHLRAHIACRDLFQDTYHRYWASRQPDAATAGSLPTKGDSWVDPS
How it was run: as §1

[3] = biological target: T3, LATS2 (Homo sapiens, UniProt Q9NRM7); details: LATS2, 1 μM; read-out: % control
T3 sequence (Q9NRM7 1-1088): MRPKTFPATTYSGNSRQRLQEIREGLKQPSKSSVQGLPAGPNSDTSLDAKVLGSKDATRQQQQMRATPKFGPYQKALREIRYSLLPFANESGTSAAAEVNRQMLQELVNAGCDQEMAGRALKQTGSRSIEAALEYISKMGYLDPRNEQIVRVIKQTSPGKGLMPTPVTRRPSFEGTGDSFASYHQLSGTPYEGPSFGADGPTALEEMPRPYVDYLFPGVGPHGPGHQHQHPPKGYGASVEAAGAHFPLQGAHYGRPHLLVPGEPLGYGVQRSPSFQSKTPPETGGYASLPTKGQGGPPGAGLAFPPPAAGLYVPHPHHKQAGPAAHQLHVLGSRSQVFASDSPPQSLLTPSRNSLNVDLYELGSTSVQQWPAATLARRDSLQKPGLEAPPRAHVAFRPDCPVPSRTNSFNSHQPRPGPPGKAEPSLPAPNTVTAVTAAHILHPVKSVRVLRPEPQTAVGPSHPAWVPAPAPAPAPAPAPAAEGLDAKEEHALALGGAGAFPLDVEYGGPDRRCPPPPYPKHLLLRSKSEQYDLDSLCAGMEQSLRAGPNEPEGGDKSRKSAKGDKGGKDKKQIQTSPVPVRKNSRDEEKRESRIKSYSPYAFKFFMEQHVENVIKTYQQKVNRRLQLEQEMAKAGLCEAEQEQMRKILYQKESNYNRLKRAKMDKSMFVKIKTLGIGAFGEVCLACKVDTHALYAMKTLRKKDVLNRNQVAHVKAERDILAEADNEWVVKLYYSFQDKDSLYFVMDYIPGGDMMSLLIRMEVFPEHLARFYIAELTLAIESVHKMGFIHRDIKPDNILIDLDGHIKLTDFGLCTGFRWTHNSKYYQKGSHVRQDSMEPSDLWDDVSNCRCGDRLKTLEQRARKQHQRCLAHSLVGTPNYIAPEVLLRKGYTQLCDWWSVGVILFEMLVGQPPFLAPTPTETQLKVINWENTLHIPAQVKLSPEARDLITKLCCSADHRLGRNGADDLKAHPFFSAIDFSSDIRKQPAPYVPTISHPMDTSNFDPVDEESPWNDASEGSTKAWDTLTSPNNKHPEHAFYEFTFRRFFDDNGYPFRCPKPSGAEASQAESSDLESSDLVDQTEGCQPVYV
How it was run: as §1

[4] = biological target: PIK3C2B (Homo sapiens, UniProt O00750); details: read-out: % control
Chain of PIK3C2B (O00750 whole entry): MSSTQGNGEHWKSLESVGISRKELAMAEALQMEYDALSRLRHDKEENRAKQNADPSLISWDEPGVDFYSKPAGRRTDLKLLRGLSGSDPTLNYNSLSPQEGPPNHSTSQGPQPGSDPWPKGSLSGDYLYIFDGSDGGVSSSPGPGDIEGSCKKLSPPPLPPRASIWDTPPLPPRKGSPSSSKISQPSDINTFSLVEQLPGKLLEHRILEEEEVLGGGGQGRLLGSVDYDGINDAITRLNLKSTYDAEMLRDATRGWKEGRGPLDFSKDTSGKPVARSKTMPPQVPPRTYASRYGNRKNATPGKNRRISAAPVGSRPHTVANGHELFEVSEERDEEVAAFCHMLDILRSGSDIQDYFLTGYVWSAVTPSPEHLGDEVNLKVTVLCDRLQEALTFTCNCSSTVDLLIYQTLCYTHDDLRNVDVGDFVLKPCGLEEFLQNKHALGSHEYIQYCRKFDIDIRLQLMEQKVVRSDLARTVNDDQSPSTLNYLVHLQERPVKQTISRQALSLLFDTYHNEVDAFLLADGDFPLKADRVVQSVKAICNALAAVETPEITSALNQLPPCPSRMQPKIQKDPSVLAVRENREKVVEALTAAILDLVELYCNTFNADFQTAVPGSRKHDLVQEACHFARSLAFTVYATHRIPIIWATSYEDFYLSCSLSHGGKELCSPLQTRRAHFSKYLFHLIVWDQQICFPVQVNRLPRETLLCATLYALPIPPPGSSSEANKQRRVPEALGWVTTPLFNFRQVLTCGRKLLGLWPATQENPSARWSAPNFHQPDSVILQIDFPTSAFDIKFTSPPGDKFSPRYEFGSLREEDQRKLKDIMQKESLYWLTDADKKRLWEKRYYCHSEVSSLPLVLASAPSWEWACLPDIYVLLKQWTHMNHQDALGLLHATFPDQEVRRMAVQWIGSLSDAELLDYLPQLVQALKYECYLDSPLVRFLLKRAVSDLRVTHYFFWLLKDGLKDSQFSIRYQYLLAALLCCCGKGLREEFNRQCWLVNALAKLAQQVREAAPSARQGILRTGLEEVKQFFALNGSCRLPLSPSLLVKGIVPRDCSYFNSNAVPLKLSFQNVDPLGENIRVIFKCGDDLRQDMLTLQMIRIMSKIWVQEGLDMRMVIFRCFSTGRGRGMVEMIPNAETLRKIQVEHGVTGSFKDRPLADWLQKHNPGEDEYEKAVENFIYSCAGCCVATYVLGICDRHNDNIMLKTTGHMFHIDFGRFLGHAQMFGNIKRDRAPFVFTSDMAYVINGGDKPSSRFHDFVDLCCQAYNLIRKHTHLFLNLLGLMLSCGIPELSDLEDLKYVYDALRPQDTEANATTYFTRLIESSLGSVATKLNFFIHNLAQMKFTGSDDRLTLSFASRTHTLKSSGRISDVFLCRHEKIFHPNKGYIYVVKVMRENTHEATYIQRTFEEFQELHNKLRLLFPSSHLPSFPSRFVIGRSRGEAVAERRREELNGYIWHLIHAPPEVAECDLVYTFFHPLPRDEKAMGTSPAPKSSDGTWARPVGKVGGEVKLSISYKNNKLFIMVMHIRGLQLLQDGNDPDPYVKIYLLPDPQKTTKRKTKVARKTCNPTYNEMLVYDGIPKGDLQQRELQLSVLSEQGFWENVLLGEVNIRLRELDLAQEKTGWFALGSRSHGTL
How it was run: as §1

[5] = biological target: MST3 (Homo sapiens, UniProt Q9Y6E0); details: MST3, 1 μM; read-out: % control
Chain of MST3 (Q9Y6E0 whole entry): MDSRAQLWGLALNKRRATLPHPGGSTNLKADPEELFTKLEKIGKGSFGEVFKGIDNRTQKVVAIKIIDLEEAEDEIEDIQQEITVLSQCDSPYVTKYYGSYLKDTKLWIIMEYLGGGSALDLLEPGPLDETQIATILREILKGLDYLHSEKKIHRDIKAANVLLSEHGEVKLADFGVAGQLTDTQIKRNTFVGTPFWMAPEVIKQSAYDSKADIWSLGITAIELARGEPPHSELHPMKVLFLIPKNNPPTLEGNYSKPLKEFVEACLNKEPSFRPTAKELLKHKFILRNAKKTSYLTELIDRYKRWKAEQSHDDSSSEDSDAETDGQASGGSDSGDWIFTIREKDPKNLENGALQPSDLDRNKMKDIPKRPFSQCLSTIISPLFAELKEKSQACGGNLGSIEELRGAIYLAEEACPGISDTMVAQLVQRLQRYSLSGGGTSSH
How it was run: as §1

[6] = biological target: CAMK1 (Homo sapiens, UniProt Q14012); details: CAMK1, 1 μM; read-out: % control
Chain of CAMK1 (Q14012 whole entry): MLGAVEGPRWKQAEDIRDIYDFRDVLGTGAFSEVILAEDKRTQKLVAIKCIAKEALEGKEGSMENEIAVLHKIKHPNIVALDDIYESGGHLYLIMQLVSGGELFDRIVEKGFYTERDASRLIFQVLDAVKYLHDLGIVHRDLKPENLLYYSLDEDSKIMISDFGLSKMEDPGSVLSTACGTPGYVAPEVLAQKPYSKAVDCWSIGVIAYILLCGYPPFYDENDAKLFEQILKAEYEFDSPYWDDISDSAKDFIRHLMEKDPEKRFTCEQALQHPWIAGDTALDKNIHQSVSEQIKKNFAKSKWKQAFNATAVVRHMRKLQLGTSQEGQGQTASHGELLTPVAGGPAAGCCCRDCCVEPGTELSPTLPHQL
How it was run: as §1

In the case of CNc1c(-c2cnn([C@H]3CCN(C(C)=O)C[C@@H]3F)c2)cnc2[nH]cc(Cl)c12 [Compound 77, 1-((3S,4S)-4-(4-(3-chloro-4-(methylamino)-1H-pyrrolo[2,3-b]pyridin-5-yl)-1H-pyrazol-1-yl)-3-fluoropiperidin-1-yl)ethan-1-one], the remaining binding at 1 µM [1] is reported as 17%, the remaining binding at 1 µM [2] is reported as 100% and the remaining binding at 1 µM [3] is reported as 86%. The remaining binding at 1 µM [4] was 100%, the remaining binding at 1 µM [5] was 72% and the remaining binding at 1 µM [6] was 84%.
O=C(c1ccc(-c2cnc3[nH]cc(Cl)c3c2NC2CCCC2)cc1)N1CCC(N2CCOCC2)CC1 [Compound 101, (4-(3-chloro-4-(cyclopentylamino)-1H-pyrrolo[2,3-b]pyridin-5-yl)phenyl)(4-morpholinopiperidin-1-yl)methanone] showed a remaining binding at 1 µM [1] of 49%, a remaining binding at 1 µM [2] of 100% and a remaining binding at 1 µM [3] of 82%. For the same molecule, the remaining binding at 1 µM [4] was 96%, the remaining binding at 1 µM [5] was 86% and the remaining binding at 1 µM [6] was 98%.
CNc1c(-c2ccc(C(=O)N3CCC(N4CCOCC4)CC3)cc2)cnc2[nH]cc(Cl)c12 [Compound 96, (4-(3-chloro-4-(methylamino)-1H-pyrrolo[2,3-b]pyridin-5-yl)phenyl)(4-morpholinopiperidin-1-yl)methanone] showed a remaining binding at 1 µM [1] of 14%, a remaining binding at 1 µM [2] of 100% and a remaining binding at 1 µM [3] of 78%. It also gave a remaining binding at 1 µM [4] of 96%, a remaining binding at 1 µM [5] of 74% and a remaining binding at 1 µM [6] of 87%.
